“Also recorded” adds a separate entry of the source. No end group written: not given here. *: point of attachment. Biotin = O=C1N[C@H]2[C@H](CS[C@H]2CCCCC(=O)*)N1
Test system: insulin
Assay: electrochemical impedance spectroscopy
Format: binding
Settings: two experimental cases and one scrambled sequence; different insulin concentrations; PBS

EACVESGGGENLYFQK(Biotin) [scrambled sequence]
raw phase change (Zphz) across different frequencies: The largest change across different frequencies is observed in the scrambled sequence negative control compared to the other two experimental cases; also recorded: The largest change across different frequencies was observed in (C)
